From PMC4631615 (Bipolar disorders, 2015)
Values joined by “and” are separate entries in the source; they are usually repeats but may differ in a detail not shown here. Equal values may be shown once. Marks after values point to notes of the source that are not given here.

Tests used:
[1] = tested on: pregnant SWV mice; assay: Maternal body weight and weight gain, teratogenicity study; format: in vivo, mouse; details: mean ± SD
[2] = tested on: pregnant SWV mice; assay: Pregnancy outcomes; format: in vivo, mouse; details: for Dead fetuses/litter / Fetus weight / Implantations/litter / Live fetuses/litter / Resorptions/litter: mean ± SD
[3] = tested on: SWV mouse fetuses; assay: Skeletal examination of fetuses; format: in vivo
[4] = tested on: SWV mouse fetuses; details: mouse, in vivo
[5] = biological target: acyl-CoA synthetase 4; details: cited from earlier work
[6] = tested on: various animal models; details: cited from earlier work
[7] = tested on: histone deacetylase (HDAC); details: cited from earlier work
[8] = tested on: NMRI mice; details: injected on GD 8 with 3 mmol/kg; cited from earlier work
[9] = tested on: mouse; details: source not given; cited from earlier work
[10] = tested on: patients with bipolar disorder; details: Phase IIb; cited from earlier work
[11] = 1/3.28 of LD50 (VCD 304.6 mg/kg) p.o. GD 4–17
[12] = 1/4.36 of LD50 (RIS 14.5, VCD 229.2 mg/kg) p.o. GD 4–17
[13] = 1/6.54 of LD50 (RIS 9.6, OLA 32.1, VCD 152.8 mg/kg) p.o. GD 4–17

## CCC(C)C(CC)C(N)=O (stereo not drawn) [VCD, 2-ethyl-3-methylpentamide]
[1]; [11]
  Dams net weight gain: 8.6 ± 1.8 grams
  Dams weight GD 18: 48.2 ± 2.9 grams
  Dams weight gain: 20.5 ± 3.5 grams
[1]; [12]
  Dams net weight gain: 7.8 ± 2.1 grams
  Dams weight GD 18: 47.3 ± 4.2 grams
  Dams weight gain: 20.1 ± 2.9 grams
[1]; [13]
  Dams net weight gain: 7.9 ± 2.1 grams
  Dams weight GD 18: 48.5 ± 3.4 grams
  Dams weight gain: 20.2 ± 3.0 grams
[2]; [11]
  Fetuses sex ratio F/M: 57/73
  Dead fetuses/litter: 0.1 ± 0.2
  Fetus weight: 0.91 ± 0.06 g
  Implantations/litter: 14.5 ± 1.7
  Live fetuses/litter: 13.2 ± 2.8
  Resorptions/litter: 1.2 ± 1.4
[2]; [12]
  Fetuses sex ratio F/M: 58/77
  Dead fetuses/litter: 0.1 ± 0.3
  Fetus weight: 0.90 ± 0.07 g
  Implantations/litter: 14.8 ± 1.6
  Live fetuses/litter: 13.7 ± 2.0
  Resorptions/litter: 0.9 ± 0.8
[2]; [13]
  Fetuses sex ratio F/M: 71/73
  Dead fetuses/litter: 0.2 ± 0.4
  Fetus weight: 0.91 ± 0.07 g
  Implantations/litter: 14.9 ± 1.7
  Live fetuses/litter: 13.8 ± 2.1
  Resorptions/litter: 1.0 ± 0.9
[3]; [11]
  All vertebra: incomplete ossification, affected fetuses: 0
  Cervical vertebra: ossified fusion of centrums, affected fetuses: 1/1
  Cervical vertebra: ossified fusion of centrums, affected litters: 1/1
  Fetuses with skeletal abnormalities, %: 8.6%
  Fibula: bent, affected fetuses: 0
  Metacarpal: absent ossification, affected fetuses: 1/1
  Metacarpal: absent ossification, affected litters: 1/1
  Metacarpal: incomplete ossification, affected fetuses: 0
  Metatarsal: absent ossification, affected fetuses: 1/1
  Metatarsal: absent ossification, affected litters: 1/1
  Metatarsal: incomplete ossification, affected fetuses: 0
  Ribs: absent 13th, affected fetuses: 0
  Ribs: branched, affected fetuses: 0
  Skull: incomplete ossification, affected fetuses: 0
  Skull: interparietal incomplete ossification, affected fetuses: 1/1
  Skull: interparietal incomplete ossification, affected litters: 1/1
  Skull: parietal incomplete ossification, affected fetuses: 0
  Skull: supraoccipital incomplete ossification, affected fetuses: 0
  Sternebra: absent ossification, affected fetuses: 1/1
  Sternebra: absent ossification, affected litters: 1/1
  Sternebra: incomplete ossification, affected fetuses: 1/1
  Sternebra: incomplete ossification, affected litters: 1/1
  Sternebra: misaligned, affected fetuses: 0
  Sternebra: misshapen, affected fetuses: 3
  Sternebra: misshapen, affected litters: 2
  Whole skeletal system: incomplete ossification, affected fetuses: 0
[3]; [12]
  All vertebra: incomplete ossification, affected fetuses: 0
  Cervical vertebra: ossified fusion of centrums, affected fetuses: 0
  Fibula: bent, affected fetuses: 1/1
  Fibula: bent, affected litters: 1/1
  Metacarpal: absent ossification, affected fetuses: 0
  Metacarpal: incomplete ossification, affected fetuses: 0
  Metatarsal: absent ossification, affected fetuses: 0
  Metatarsal: incomplete ossification, affected fetuses: 0
  Ribs: absent 13th, affected fetuses: 3/3
  Ribs: absent 13th, affected litters: 3/3
  Ribs: branched, affected fetuses: 1/1
  Ribs: branched, affected litters: 1/1
  Skull: incomplete ossification, affected fetuses: 1/1
  Skull: incomplete ossification, affected litters: 1/1
  Skull: interparietal incomplete ossification, affected fetuses: 0
  Skull: parietal incomplete ossification, affected fetuses: 0
  Skull: supraoccipital incomplete ossification, affected fetuses: 0
  Sternebra: absent ossification, affected fetuses: 0
  Sternebra: incomplete ossification, affected fetuses: 3
  Sternebra: incomplete ossification, affected litters: 2
  Sternebra: misaligned, affected fetuses: 0
  Sternebra: misshapen, affected fetuses: 6
  Sternebra: misshapen, affected litters: 4
[3]; [13]
  All vertebra: incomplete ossification, affected fetuses: 0
  Cervical vertebra: ossified fusion of centrums, affected fetuses: 0
  Fibula: bent, affected fetuses: 0
  Metacarpal: absent ossification, affected fetuses: 0
  Metacarpal: incomplete ossification, affected fetuses: 0
  Metatarsal: absent ossification, affected fetuses: 0
  Metatarsal: incomplete ossification, affected fetuses: 0
  Ribs: absent 13th, affected fetuses: 3
  Ribs: absent 13th, affected litters: 1
  Ribs: branched, affected fetuses: 1/1
  Ribs: branched, affected litters: 1/1
  Skull: incomplete ossification, affected fetuses: 6
  Skull: incomplete ossification, affected litters: 2
  Skull: interparietal incomplete ossification, affected fetuses: 1/1
  Skull: interparietal incomplete ossification, affected litters: 1/1
  Skull: parietal incomplete ossification, affected fetuses: 0
  Skull: supraoccipital incomplete ossification, affected fetuses: 1/1
  Skull: supraoccipital incomplete ossification, affected litters: 1/1
  Sternebra: absent ossification, affected fetuses: 2/2
  Sternebra: absent ossification, affected litters: 2/2
  Sternebra: incomplete ossification, affected fetuses: 0
  Sternebra: misaligned, affected fetuses: 1/1
  Sternebra: misaligned, affected litters: 1/1
  Sternebra: misshapen, affected fetuses: 0
[3]; mouse, in vivo
  Fetuses with skeletal abnormalities, %: 10.4% and 11.1%
  Whole skeletal system: incomplete ossification, affected fetuses: 0
[4]; female, SWV
  Cleft palate, affected fetuses: 0
  Dilated renal pelvis, affected litters: 2/2
  Exencephaly, affected fetuses: 0
  Malposition stomach, affected litters: 1/1
  Right aortic arch, affected litters: 1/1 ^b
[4]; po
  Overall teratogenicity under the experimental conditions: did not show any teratogenic effect
[5]
  Ki, uncompetitive inhibition of acylation of arachidonic acid: 6.38 mM
[6]
  Anticonvulsant potency relative to VPA: 3–10 times
[7]
  Inhibition of HDACs: does not inhibit
[8]
  Embryotoxicity: did not induce any embryotoxicity
[9]
  LD50 mouse, oral: 999 mg/kg
[10]
  Tolerated daily dose with minimal side effects: 1500 mg
